Experimental data published in ChEMBL document CHEMBL2331252, “Facile one-pot synthesis of novel dispirooxindole-pyrrolidine derivatives and their antimicrobial and anticancer activity against A549 human lung adenocarcinoma cancer cell line” (Bioorg Med Chem Lett, 2013).
Values after ≈ are worked out from the molar mass of the structure shown. Active and inactive are the calls of the source. The calls are words filed in the database; no cut-off is given here.

What was measured:
Proteus vulgaris [1] = assay: Antibacterial activity against Proteus vulgaris MTCC 1771 at 1 mg/disc after 24 hrs by disc diffusion method; type: functional
Klebsiella aerogenes [2] = assay: Antibacterial activity against Enterobacter aerogenes MTCC 111 after 24 hrs; type: functional
Proteus vulgaris [3] = assay: Antibacterial activity against Proteus vulgaris MTCC 1771 after 24 hrs; type: functional; conditions: MTCC 1771, 24 h
Shigella flexneri [4] = assay: Antibacterial activity against Shigella flexneri MTCC 1457 at 1 mg/disc after 24 hrs by disc diffusion method; type: functional
Staphylococcus aureus [5] = assay: Antibacterial activity against methicillin-resistant Staphylococcus aureus after 24 hrs; type: functional
Candida albicans [6] = assay: Antifungal activity against Candida albicans MTCC 227 at 1 mg/disc after 48 hrs by disc diffusion method; type: functional
A549 [7] = assay: Cytotoxicity against human A549 cells assessed as cell death at 100 ug/ml by MTT assay; type: functional
Candida albicans [8] = assay: Antifungal activity against Candida albicans MTCC 227 after 48 to 72 hrs; type: functional
Klebsiella aerogenes [9] = assay: Antibacterial activity against Enterobacter aerogenes MTCC 111 at 1 mg/disc after 24 hrs by disc diffusion method; type: functional
Salmonella typhimurium [10] = assay: Antibacterial activity against Salmonella typhimurium MTCC 1251 at 1 mg/disc after 24 hrs by disc diffusion method; type: functional, Salmonella enterica subsp. enterica serovar Typhimurium; conditions: for inhibition: Salmonella enterica subsp. enterica serovar Typhimurium
A549 [11] = assay: Cytotoxicity against human A549 cells assessed as cell death at 200 ug/ml by MTT assay; type: functional
Shigella flexneri [12] = assay: Antibacterial activity against Shigella flexneri MTCC 1457 after 24 hrs; type: functional; conditions: MTCC 1457, 24 h
Salmonella typhimurium [13] = assay: Antibacterial activity against Salmonella typhimurium MTCC 1251 after 24 hrs; type: functional, Salmonella enterica subsp. enterica serovar Typhimurium
Klebsiella pneumoniae [14] = assay: Antibacterial activity against Klebsiella pneumoniae MTCC 109 after 24 hrs; type: functional; conditions: MTCC 109, 24 h
Klebsiella pneumoniae [15] = assay: Antibacterial activity against Klebsiella pneumoniae MTCC 109 at 1 mg/disc after 24 hrs by disc diffusion method; type: functional
[16] = Antifungal activity against Malassezia pachydermatis at 1 mg/disc after 48 hrs by disc diffusion method; type: functional
Staphylococcus aureus [17] = assay: Antibacterial activity against Staphylococcus aureus MTCC 96 at 1 mg/disc after 24 hrs by disc diffusion method; type: functional
A549 [18] = assay: Cytotoxicity against human A549 cells assessed as cell death at 50 ug/ml by MTT assay; type: functional
Micrococcus luteus [19] = assay: Antibacterial activity against Micrococcus luteus MTCC 106 at 1 mg/disc after 24 hrs by disc diffusion method; type: functional
Staphylococcus aureus [20] = assay: Antibacterial activity against methicillin-resistant Staphylococcus aureus at 1 mg/disc after 24 hrs by disc diffusion method; type: functional
Staphylococcus aureus [21] = assay: Antibacterial activity against Staphylococcus aureus MTCC 96 after 24 hrs; type: functional
Micrococcus luteus [22] = assay: Antibacterial activity against Micrococcus luteus MTCC 106 after 24 hrs; type: functional
A549 [23] = assay: Cytotoxicity against human A549 cells assessed as cell death by MTT assay; type: functional, cell-based
[24] = Salmonella enterica, MTCC 1251, 24 h
[25] = Salmonella enterica subsp. enterica serovar Typhimurium

Row | Structure (SMILES) | inhibition zone (IZ) (Proteus vulgaris [1]) [mm] | MIC (Proteus vulgaris [3]) [µg/mL] | inhibition zone (IZ) (Shigella flexneri [4]) [mm] | MIC (Staphylococcus aureus [5]) | Activity (A549 [7]) [%] | MIC (Candida albicans [8]) | inhibition zone (IZ) (Salmonella typhimurium [10]) [mm] | Activity (A549 [11]) [%] | MIC (Shigella flexneri [12]) [µg/mL] | MIC (Salmonella typhimurium [13]; [24]) [µg/mL] | MIC (Klebsiella pneumoniae [14]) [µg/mL] | inhibition zone (IZ) (Klebsiella pneumoniae [15]) [mm] | inhibition [16] | inhibition zone (IZ) (Staphylococcus aureus [17]) [mm] | Activity (A549 [18]) [%] | inhibition zone (IZ) (Micrococcus luteus [19]) [mm] | inhibition zone (IZ) (Staphylococcus aureus [20]) [mm] | MIC (Staphylococcus aureus [21]; MTCC 96, 24 h) [µg/mL] | MIC (Micrococcus luteus [22]; MTCC 106, 24 h) [µg/mL] | inhibition zone (IZ) (Klebsiella aerogenes [9]) [mm] | other results
1 | C=CCN1C(=O)[C@@]2(c3ccccc31)N(C)C[C@](C#N)(C(=O)c1c[nH]c3ccccc13)[C@]21C(=O)Nc2ccccc21 | 9 | 1000 (≈ 1900 µM) | 9 | 1000 µg/mL (≈ 1900 µM) | 8.81 | 500 µg/mL (≈ 948 µM) | 16 | 16 | 1000 (≈ 1900 µM) | 62.5 (≈ 118 µM) | 125 (≈ 237 µM) | 12 | inactive | 11 | 5.61 | 10 | 9 | 500 (≈ 948 µM) | 500 (≈ 948 µM) |  | MIC (Klebsiella aerogenes [2]): inactive; inhibition zone (IZ) (Candida albicans [6]): 9 mm; inhibition (Klebsiella aerogenes [9]): inactive
2 | CN1C[C@](C#N)(C(=O)c2c[nH]c3ccccc23)[C@]2(C(=O)Nc3ccccc32)C12C(=O)c1cccc3cccc2c13 (stereo not given in full) | 8 | 500 (≈ 957 µM) | 9 | inactive | 21.61 | 500 µg/mL (≈ 957 µM) |  | 29.72 | 500 (≈ 957 µM) |  | 500 (≈ 957 µM) | 8 | inactive | 11 | 7.55 | 9 |  | 125 (≈ 239 µM) | 500 (≈ 957 µM) | 10 | MIC (Klebsiella aerogenes [2]; MTCC 111, 24 h): 500 µg/mL (≈ 957 µM); inhibition zone (IZ) (Candida albicans [6]): 9 mm; inhibition (Salmonella typhimurium [10]): inactive; MIC (Salmonella typhimurium [13]; [25]): inactive; inhibition (Staphylococcus aureus [20]): inactive
3 | Cc1ccc2c(c1)[C@]1(C(=O)N2)N(C)C[C@](C#N)(C(=O)c2c[nH]c3ccccc23)[C@]12C(=O)Nc1ccccc12 | 10 | 500 (≈ 997 µM) | 11 | 500 µg/mL (≈ 997 µM) | 56.34 | inactive | 10 | 62.96 | 125 (≈ 249 µM) | 500 (≈ 997 µM) | 500 (≈ 997 µM) | 9 | inactive |  | 31.6 | 10 | 10 |  | 500 (≈ 997 µM) | 9 | MIC (Klebsiella aerogenes [2]; MTCC 111, 24 h): 500 µg/mL (≈ 997 µM); inhibition (Candida albicans [6]): inactive; inhibition (Staphylococcus aureus [17]): inactive; MIC (Staphylococcus aureus [21]): inactive
4 | C#CCN1C(=O)[C@@]2(c3ccccc31)N(C)C[C@](C#N)(C(=O)c1c[nH]c3ccccc13)[C@]21C(=O)Nc2ccccc21 | 10 | 500 (≈ 951 µM) | 8 | 500 µg/mL (≈ 951 µM) | 59.31 | inactive | 9 | 67.67 | 500 (≈ 951 µM) | 500 (≈ 951 µM) | 62.5 (≈ 119 µM) | 14 | inactive | 12 | 55.22 |  | 8 | 125 (≈ 238 µM) |  |  | IC50 (A549 [23]): 50 µg/mL (≈ 95.1 µM); MIC (Klebsiella aerogenes [2]): inactive; inhibition (Candida albicans [6]): inactive; inhibition (Klebsiella aerogenes [9]): inactive; inhibition (Micrococcus luteus [19]): inactive; MIC (Micrococcus luteus [22]): inactive
5 | CN1C[C@](C#N)(C(=O)c2c[nH]c3ccccc23)[C@]2(C(=O)Nc3ccccc32)[C@@]12C(=O)Nc1ccccc12 | 8 | 500 (≈ 1030 µM) | 8 | 500 µg/mL (≈ 1030 µM) | 20.91 | 500 µg/mL (≈ 1030 µM) |  | 33.5 | 500 (≈ 1030 µM) |  | 125 (≈ 256 µM) | 12 | inactive | 8 | 17.46 | 9 | 10 | 500 (≈ 1030 µM) | 500 (≈ 1030 µM) | 9 | MIC (Klebsiella aerogenes [2]; MTCC 111, 24 h): 500 µg/mL (≈ 1030 µM); inhibition zone (IZ) (Candida albicans [6]): 9 mm; inhibition (Salmonella typhimurium [10]): inactive; MIC (Salmonella typhimurium [13]; [25]): inactive
6 | CN1C(=O)[C@@]2(c3cc(Br)ccc31)N(C)C[C@](C#N)(C(=O)c1c[nH]c3ccccc13)[C@]21C(=O)Nc2ccccc21 | 9 | 500 (≈ 861 µM) | 11 | 500 µg/mL (≈ 861 µM) | 2.07 | inactive | 9 | 10.92 | 125 (≈ 215 µM) | 500 (≈ 861 µM) | 500 (≈ 861 µM) | 8 | inactive | 9 | 0.87 | 11 | 8 | 500 (≈ 861 µM) | 125 (≈ 215 µM) | 10 | MIC (Klebsiella aerogenes [2]; MTCC 111, 24 h): 125 µg/mL (≈ 215 µM); inhibition (Candida albicans [6]): inactive
7 | CN1C[C@](C#N)(C(=O)c2c[nH]c3ccccc23)[C@]2(C(=O)Nc3ccccc32)[C@@]12C(=O)Nc1ccc(Br)cc12 | 12 | 250 (≈ 441 µM) | 10 | 500 µg/mL (≈ 883 µM) | 9.34 | 500 µg/mL (≈ 883 µM) | 15 | 15.98 | 500 (≈ 883 µM) | 125 (≈ 221 µM) | 500 (≈ 883 µM) | 9 | inactive | 11 | 3.43 | 9 | 9 | 500 (≈ 883 µM) | 1000 (≈ 1770 µM) | 10 | MIC (Klebsiella aerogenes [2]): inactive; inhibition zone (IZ) (Candida albicans [6]): 11 mm
